Structures can show the parent of a compound that is named as a salt.
Legend:
Type in all cases: in vivo
[1] = system: LPS-induced NFkB activation; assay: NFkB-luciferase reporter mice assay (LPS-induced endotoxemia); settings: for inhibition of LPS-induced NFkB activation: 20 nanomoles test compound i.p. 30 minutes prior to LPS 2 mg/kg, 6 hrs, IVIS luciferase imaging
Description: (§1) Compound preparation and delivery. All 65 identified compounds were received in solid form and stored at 4° C. until use. Stock solutions of each compound were made by dissolving the appropriate amount of each compound in dimethyl sulfoxide (DMSO) to yield a concentration of 10 mM. Immediately prior to injection into experimental animals, the compounds were diluted to an experimental concentration of 100 uM in phosphate-buffered saline (PBS). Total concentration of DMSO in the final diluted drug was 1%. Compounds were closely examined to insure that no precipitate formed prior to injection and were stored on ice until injection. All compounds were given via intraperitoneal (i.p.) injection in a total volume of 200 ul using a 1 cc syringe and 27 gauge needle. In all experiments listed below, the compounds were delivered to the experimental mice 30 minutes prior to injection with lipopolysaccharide (LPS) to induce endotoxemia. Control animals not receiving compound received 1% DMSO dissolved in PBS. Following drug injection, the mice were observed closely in their cages for signs of immediate toxicity or adverse reaction to the drug, including but not limited to piloerection, tachypnea, bleeding, abnormal or aggressive behavior, signs of altered mental status, and level of activity.
(§2) Induction of endotoxemia. All mice were housed and cared for at the Rangos Research Center, Children's Hospital of Pittsburgh (Pittsburgh, Pa.). All experiments were approved by the Children's Hospital of Pittsburgh Animal Care Committee and by the Institutional Review Board of the University of Pittsburgh. Swiss Webster (CFW) and NFkB-luciferase reporter mice were obtained from The Jackson Laboratory. Throughout the course of all experiments, mice were housed 4 per cage with access to food, water, and standard bedding. Endotoxemia was induced in all experiments by i.p. injection of LPS (Escherichia coli 0111:B4 purified by gel filtration chromatography, >99% pure, Sigma-Aldrich) at a dose of 2 mg/kg for 6 hours. At the end of each experiment, all animals were euthanized by CO2 hypoxia and cervical dislocation.
NFkB-luciferase reporter mice assay. NFkB-luciferase reporter mice, in which the […], were subjected to endotoxemia with or without pretreatment with experimental compounds. The experimental compounds treated by this assay were compounds 1-6, with compounds 1-3 tested first and compounds 4-6 tested later. For both experiments, the mice were 6 weeks old on the date of the experiment. […] After whole body imaging, an additional injection of luciferin is given and animals were euthanized, organs were harvested, and the extent of NFkB activation within various tissues was further analyzed by an additional luminescence image of the individual organs. […]

iNOS mRNA = assay: CFW-NEC mouse model (formula feeding), iNOS mRNA levels; settings: 1 mg/kg, i.p., once daily for the first four days of the five day model; relative to RPLO
Text: Inducible nitric oxide synthase (iNOS) is associated with necrotizing enterocolitis (NEC) in human infants. In a second set of experiments, the CFW-NEC mouse model system for NEC was used to evaluate the effect of various compounds from TABLES 1 and 2 above on iNOS mRNA levels. A model system for NEC was induced in newborn mouse pups by formula feeding, where control animals were breast-fed (Sodhi et al., 2010, Gastroenterol. 138(1):185-196; Richardson et al., 2010, Gastroenterol. 139(3):904-917). […] Note that RPLO stands for 505 ribosomal subunit protein L15, an acknowledged housekeeping gene, which means that it is a constitutive gene expressed at relatively constant levels by all cells and is thus used as a reference for comparing other genes which may vary under experimental conditions. In this same model system, levels of TLR4 mRNA levels were also evaluated. […] In contrast, the level of TLR4 was not increased in FF animals treated with C34 (1 mg/kg, i.p. once daily for the first four days of the five day model) and indeed mRNA levels were 30 percent below normal (see FIG. 14).

TLR4 = molecular target: T1, TLR4 (Mus musculus, UniProt Q9JHF9+Q9QUK6); assay: CFW endotoxemia assay (observation of behavior and phenotype after LPS); settings: CFW mice, 20 nanomoles compound i.p. 30 minutes prior to LPS 2 mg/kg, 6 hours; for Observation (Compound “Hits”): listed as “Hits”; for Observation (Compound “Negatives”): listed as “Negatives”
T1 construct: Swiss Webster (CFW) and NFkB-luciferase reporter mice were obtained from The Jackson Laboratory; tissue The Jackson Laboratory; host or cells: whole live Swiss Webster (CFW) mice
T1 sequence (Q9QUK6 26-835): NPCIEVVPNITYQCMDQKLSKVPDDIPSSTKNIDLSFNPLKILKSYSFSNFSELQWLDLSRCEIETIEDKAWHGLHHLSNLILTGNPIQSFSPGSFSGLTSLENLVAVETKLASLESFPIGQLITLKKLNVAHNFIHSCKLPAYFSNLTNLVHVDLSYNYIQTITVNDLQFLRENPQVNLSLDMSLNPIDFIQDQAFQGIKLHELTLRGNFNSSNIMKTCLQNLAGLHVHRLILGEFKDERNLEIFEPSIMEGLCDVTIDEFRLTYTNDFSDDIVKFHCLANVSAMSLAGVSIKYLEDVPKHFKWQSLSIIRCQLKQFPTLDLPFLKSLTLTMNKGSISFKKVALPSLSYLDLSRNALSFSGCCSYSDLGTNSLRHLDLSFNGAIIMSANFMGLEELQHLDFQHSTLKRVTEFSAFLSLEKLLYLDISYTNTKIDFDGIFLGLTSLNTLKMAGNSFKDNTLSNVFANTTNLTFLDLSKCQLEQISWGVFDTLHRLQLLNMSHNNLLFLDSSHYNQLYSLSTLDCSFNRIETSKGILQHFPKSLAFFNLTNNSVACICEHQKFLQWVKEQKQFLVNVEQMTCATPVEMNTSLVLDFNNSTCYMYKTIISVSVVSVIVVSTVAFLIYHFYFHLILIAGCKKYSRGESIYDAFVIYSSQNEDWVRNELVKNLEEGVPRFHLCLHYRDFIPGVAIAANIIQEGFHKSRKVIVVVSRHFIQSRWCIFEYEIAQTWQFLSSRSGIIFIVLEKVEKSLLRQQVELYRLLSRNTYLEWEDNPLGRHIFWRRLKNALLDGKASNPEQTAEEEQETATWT
T1 sequence (Q9JHF9 19-160): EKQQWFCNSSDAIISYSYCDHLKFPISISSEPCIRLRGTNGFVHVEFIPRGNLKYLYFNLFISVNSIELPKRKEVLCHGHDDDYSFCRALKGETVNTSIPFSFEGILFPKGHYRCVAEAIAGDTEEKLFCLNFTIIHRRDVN
Description: as §1, §2
CFW endotoxemia assay. In order to effectively screen the entire compound list, the remaining compounds (7-60) were screened in a model of endotoxemia using CFW mice. Three separate experiments were performed: First, Compound 7 along with a repeat of compound 4 (n=3 mice per compound, mice age 5 weeks) were tested. Controls were saline injection alone (n=1), LPS 2 mg/kg 6 hrs (n=2). Second, compounds 3, 4, 6, 8-32 were tested (n=1 mouse each, 3 week old mice). Controls were saline injection alone (n=1), LPS 2 mg/kg 6 hrs (n=2), LPS 10 mg/kg 6 hrs (n=2), Bay 11 pretreatment 20 mg/kg for 30 minutes prior to LPS 2 mg/kg 6 hrs. Third, compounds 8, 16, 33-60 were tested (n=1 mouse each, 3 week old mice). Controls were saline injection alone (n=1), LPS 2 mg/kg 6 hrs (n=2), Bay 11 pretreatment 20 mg/kg for 30 minutes prior to LPS 2 mg/kg 6 hrs. Following 6 hours of endotoxemia, mice from the second and third experiments were observed within their cages and videotaped to document behavior and phenotypic differences to assess for an inhibitory effect of compound pretreatment on the effects of LPS. Mice were identified by a number previously placed using permanent marker on their tails. The degree of piloerection, tachypnea, location in the cage (center of cage versus corners), degree of activity, and behavior relative to other animals was observed and documented via video for each mouse.
Less activity, tachypnea, and piloerection are considered symptomatic of endotoxemia, so a decrease in these is consistent with TLR inhibition by the administered compound. Note that compounds listed as negatives may still be T4Ics at other concentrations or conditions.

Row | Compound | Observation (Compound “Hits”) (TLR4) | further results
1 | CCCCCCCCCCCCCCCCCCCCCCCCCC(=O)NC(COC1OC(CO)C(O)C(O)C1O)C(O)C(O)CCCCCCCCCCCCCC [Compound 2, N-{(1S,2S,3R)-1-[(beta-L-glycero-hexopyranosyloxy)methyl]-2,3-dihydroxyheptadecyl}hexacosanamide] |  | inhibition of LPS-induced NFkB activation [1]: exception
2 | CC(=O)NC1C(OP(=O)(O)O)OC(CO)C(O)C1O (stereo not shown) [Compound 4, 3-acetamido-4,5-dihydroxy-6-(hydroxymethyl)tetrahydro-2H-pyran-2-yl dihydrogen phosphate, sodium salt] |  | inhibition of LPS-induced NFkB activation ([1]; phosphate, sodium salt): greatest inhibitory activity
3 | CC(=O)N[C@H]1C(O)O[C@H](CO)[C@H](O)[C@@H]1O.O (stereo partly drawn) [Compound 16, 2-(acetylamino)-2-deoxy-D-galactopyranose hydrate] |  | NFκB signalling (luciferase imaging) ([1]; LPS 2 mg/kg plus compound 1 mg/kg i.p.): reduced NFκB signalling
4 | CC(=O)NC1C(O)OC(CO)[C@@H](O[C@@H]2OC(CO)[C@H](O)C(O)C2O)C1O (stereo partly shown) [Compound 27, 2-(acetylamino)-2-deoxy-4-O-hexopyranosylhexopyranose] |  | increase of iNOS mRNA level in formula-fed (FF) pups (iNOS mRNA): much less
5 | C=CCO[C@@H]1O[C@H](COC(C)=O)[C@H](OC(C)=O)[C@H](OC(C)=O)[C@H]1NC(C)=O [Compound 47, allyl 3,4,6-tri-O-acetyl-2-(acetylamino)-2-deoxy-beta-D-lyxo-hexopyranoside] | More active, crawled over other mice, less piloerection | 
6 | C=CCO[C@@H]1O[C@H](CO)[C@@H](O)[C@H](O)[C@H]1NC(C)=O [Compound 50, allyl 2-(acetylamino)-2-deoxy-beta-D-glycero-hexopyranoside] | More active | 
7 | CC(=O)NC1C(O)OC(CO)C(O)C1O [Compound 52, 2-(acetylamino)-2-deoxy-beta-D-glycero-hexopyranose] | More active, less piloerection | 
8 | CCO[C@@H]1O[C@H](CO)[C@@H](O)[C@H](O)[C@H]1NC(C)=O [Compound 54, ethyl 2-(acetylamino)-2-deoxy-beta-D-glycero-hexopyranoside] | Less piloerection, less tachypnea | 
9 | CCO[C@@H]1O[C@H](COC(C)=O)[C@@H](OC(C)=O)[C@H](OC(C)=O)[C@H]1NC(C)=O [Compound 55, ethyl 3,4,6-tri-O-acetyl-2-(acetylamino)-2-deoxy-beta-D-glycero-hexopyranoside] | Less piloerection, less tachypnea, more active | 
10 | CCCCCCCCCCCCCCCCOC1OC(COC(C)=O)C(OC(C)=O)C(OC(C)=O)C1NC(C)=O (stereo not shown) [Compound 61, [5-acetamido-3-acetyloxy-2-(acetyloxymethyl)-6-hexadecoxy-oxan-4-yl] acetate] | Less piloerection, less tachypnea | 
11 | COC1OC(COC(C)=O)C(OC(C)=O)C(OC(C)=O)C1NC(C)=O (stereo not shown) [Compound 62, (5-acetamido-3,4-diacetyloxy-6-methoxy-oxan-2-yl)methyl acetate] |  | Observation (Compound “Negatives”) (TLR4): Nearly static, little movement, rigors
12 | CCOC1OC(CO)C(O)C(O)C1NC(C)=O (stereo not shown) [Compound 63, N-[2-ethoxy-4,5-dihydroxy-6-(hydroxymethyl)oxan-3-yl]acetamide] | More mobile, less piloerection | 
13 | (2R,3S,4R,5R,6R)-5-acetamido-2-(acetoxymethyl)-6-(((3aR,5R,5aS,8aS,8bR)-2,2,7,7-tetramethyltetrahydro-3aH-bis[1,3]dioxolo[4,5-b:4′,5′-d]pyran-5-yl)methoxy)tetrahydro-2H-pyran-3,4-diyl-diacetate [Compound 38] |  | Observation (Compound “Negatives”) (TLR4): Less active
